Legend:
[1] = Acute toxicity administered orally was determined in 74 male rats; details: rat, in vivo, po
[2] = Acute toxicity administered orally was determined in 85 female rats; details: rat, in vivo, po
[3] = Acute toxicity administered intra peritoneally was determined in 74 male rats; details: rat, in vivo, ip
[4] = Acute toxicity administered intra peritoneally was determined in 85 female rats; details: rat, in vivo, ip
[5] = Molar primaquine index is ratio of ED50 of Compound by ED50 of primaquine in rhesus monkey; assay type: functional
[6] = Molar primaquine index is ratio of ED50 of Primaquine by ED50 of primaquine in rhesus monkey; assay type: functional
[7] = Acute toxicity administered intraperitoneally was determined in male rats; assay type: organism-based; details: rat, in vivo, ip
[8] = Acute toxicity administered orally was determined in female rats; assay type: organism-based; details: rat, in vivo, po
[9] = Acute toxicity administered orally was determined in male rats; assay type: organism-based; details: rat, in vivo, po
[10] = Acute toxicity administered intraperitoneally was determined in female rats; assay type: organism-based; details: rat, in vivo, ip

COc1cc(NC(C)CCCN)c2nccc(C)c2c1Oc1cccc(C(F)(F)F)c1 (configuration not stated)
LD50 [1]: 256 mg/kg
LD50 [2]: 401 mg/kg
LD50 [3]: 86 mg/kg
LD50 [4]: 54 mg/kg
Ratio [5]: 6.8

COc1cc(NC(C)CCCN)c2nc(OC)cc(C)c2c1 (configuration not stated)
Ratio [5]: 6.8

COc1cc(NC(C)CCCN)c2ncccc2c1 (configuration not stated) [PRIMAQUINE]
Ratio [6]: 1

COc1cc(C)c2c(Oc3cccc(C(F)(F)F)c3)c(OC)cc(NC(C)CCCN)c2n1 (configuration not stated) [TAFENOQUINE]
LD50 [7]: 102 mg/kg
LD50 [8]: 416 mg/kg
LD50 [9]: 429 mg/kg
LD50 [10]: 71 mg/kg
Ratio [5]: 12.8

From ChEMBL document CHEMBL1124633, “Antimalarials. 16. Synthesis of 2-substituted analogues of 8-[(4-amino-1-methylbutyl)amino]-6-methoxy-4-methyl-5-[3- (trifluoromethyl)phenoxy]quinoline as candidate antimalarials” (J Med Chem, 1989)
